Assay: xn = mol fraction of the nth substance listed, in the solute-free solvent

CCCCCOC(=O)Nc1nc(=O)n(C2OC(C)C(O)C2O)cc1F (stereo unspecified) + CCOC(C)=O + CCCCCCC
solubility (g/100 g solution)
Details | 278.15 K | 283.15 K | 288.15 K | 293.15 K | 298.15 K | 303.15 K | 308.15 K | 313.15 K | 318.15 K | 323.15 K
x2 = 0.3 | 0.0197 | 0.0268 | 0.0361 | 0.0476 | 0.0629 | 0.0818 | 0.106 | 0.136 | 0.174 | 0.22
x2 = 0.4 | 0.0475 | 0.0561 | 0.0765 | 0.0904 | 0.106 | 0.132 | 0.154 | 0.184 | 0.216 | 0.267
x2 = 0.5 | 0.0862 | 0.111 | 0.141 | 0.179 | 0.221 | 0.274 | 0.337 | 0.411 | 0.502 | 0.604
x2 = 0.5998 | 0.131 | 0.166 | 0.212 | 0.286 | 0.332 | 0.407 | 0.518 | 0.643 | 0.749 | 0.931
x2 = 0.7 | 0.266 | 0.34 | 0.455 | 0.554 | 0.682 | 0.849 | 1.07 | 1.31 | 1.63 | 1.98
x2 = 0.8 | 0.485 | 0.609 | 0.801 | 0.99 | 1.27 | 1.6 | 2.05 | 2.49 | 3.12 | 3.74
x2 = 0.9001 | 0.622 | 0.794 | 1.08 | 1.44 | 1.81 | 2.46 | 3.02 | 4.02 | 4.87 | 6.07

CC(N)C(=O)O (stereo unspecified) + O + CCCO
solubility (g/100 g solution)
Details | x2 = 0.1 | x2 = 0.2 | x2 = 0.3 | x2 = 0.4 | x2 = 0.5 | x2 = 0.6 | x2 = 0.7 | x2 = 0.8 | x2 = 0.9
283.15 K | 0.0276 | 0.0472 | 0.0784 | 0.143 | 0.358 | 0.635 | 1.29 | 2.39 | 4.58
293.15 K | 0.0384 | 0.0536 | 0.0822 | 0.164 | 0.384 | 0.742 | 1.56 | 3.01 | 5.63
303.15 K | 0.0461 | 0.0689 | 0.0947 | 0.202 | 0.439 | 0.892 | 1.89 | 3.69 | 6.82
313.15 K | 0.0649 | 0.0791 | 0.109 | 0.224 | 0.504 | 1.12 | 2.27 | 4.41 | 8.24
323.15 K | 0.0824 | 0.114 | 0.147 | 0.268 | 0.594 | 1.29 | 2.65 | 5.2 | 9.44

COc1cc2c(cc1OC)-c1cc3ccc(OC)c(OC)c3c[n+]1CC2.[Cl-] + O + CC(C)O
solubility (g/100 g solution)
Details | 283.15 K | 288.15 K | 293.15 K | 298.15 K | 303.15 K | 308.15 K | 313.15 K | 318.15 K | 323.15 K | 328.15 K
x2 = 0.2703 | 0.15 | 0.185 | 0.238 | 0.315 | 0.402 | 0.504 | 0.629 | 0.775 | 0.949 | 1.16
x2 = 0.4546 | 0.201 | 0.247 | 0.317 | 0.417 | 0.531 | 0.663 | 0.824 | 1.01 | 1.24 | 1.51
x2 = 0.5883 | 0.269 | 0.33 | 0.423 | 0.553 | 0.7 | 0.872 | 1.08 | 1.32 | 1.6 | 1.95
x2 = 0.6897 | 0.356 | 0.437 | 0.559 | 0.725 | 0.933 | 1.19 | 1.46 | 1.76 | 2.11 | 2.49
x2 = 0.7693 | 0.463 | 0.593 | 0.762 | 0.958 | 1.25 | 1.49 | 1.82 | 2.18 | 2.62 | 3.11
x2 = 0.8334 | 0.587 | 0.719 | 0.914 | 1.17 | 1.46 | 1.8 | 2.19 | 2.65 | 3.18 | 3.81
x2 = 0.8861 | 0.724 | 0.887 | 1.12 | 1.43 | 1.85 | 2.25 | 2.72 | 3.24 | 3.85 | 4.53
x2 = 0.9303 | 0.871 | 1.07 | 1.35 | 1.7 | 2.17 | 2.67 | 3.23 | 3.87 | 4.64 | 5.28
x2 = 0.9678 | 1.03 | 1.26 | 1.59 | 1.99 | 2.5 | 3.05 | 3.69 | 4.4 | 5.23 | 6.04

Nc1ccc(Oc2ccc(N)cc2)cc1 + COCCO + CCO
solubility (g/100 g solution)
Details | 293.15 K | 298.15 K | 303.15 K | 308.15 K | 313.15 K | 318.15 K | 323.15 K | 328.15 K | 333.15 K
x2 = 0.06303 | 0.499 | 0.623 | 0.747 | 0.912 | 1.12 | 1.28 | 1.53 | 1.85 | 2.05
x2 = 0.1315 | 0.717 | 0.756 | 1.15 | 1.31 | 1.47 | 1.66 | 2.05 | 2.13 | 2.67
x2 = 0.206 | 1.06 | 1.1 | 1.51 | 1.67 | 1.81 | 2.26 | 2.59 | 2.89 | 3.33
x2 = 0.2875 | 1.41 | 1.52 | 2.06 | 2.16 | 2.37 | 2.9 | 3.32 | 3.5 | 4.01
x2 = 0.3771 | 1.82 | 2.06 | 2.54 | 2.67 | 3.1 | 3.47 | 4.03 | 4.26 | 4.95
x2 = 0.4759 | 2.25 | 2.54 | 3.08 | 3.31 | 3.71 | 4.25 | 4.81 | 4.96 | 5.85
x2 = 0.5855 | 2.84 | 3.2 | 3.71 | 4.1 | 4.42 | 5.1 | 5.68 | 6.03 | 6.84
x2 = 0.7077 | 3.66 | 3.97 | 4.45 | 4.86 | 5.25 | 6.05 | 6.65 | 7.22 | 7.97
x2 = 0.8449 | 4.52 | 4.75 | 5.33 | 5.75 | 6.21 | 6.99 | 7.7 | 8.23 | 9.05

S=c1[nH]ncs1 + CC(C)=O + O
solubility (g/100 g solution)
Details | 278.15 K | 283.15 K | 288.15 K | 293.15 K | 298.15 K | 303.15 K | 308.15 K | 313.15 K | 318.15 K | 323.15 K
x2 = 0.1 | 1.78 | 2.36 | 2.99 | 3.78 | 4.76 | 6 | 7.45 | 9.31 | 11.5 | 14.2
x2 = 0.2 | 6.07 | 7.41 | 8.84 | 10.6 | 12.5 | 14.8 | 17.3 | 20.2 | 23.6 | 27.1
x2 = 0.3 | 11.4 | 13.3 | 15.3 | 17.4 | 19.6 | 22.2 | 24.9 | 28.1 | 30.9 | 34.4
x2 = 0.4 | 15.7 | 17.9 | 20.2 | 22.5 | 24.8 | 27.1 | 29.6 | 32.5 | 35.3 | 38.5
x2 = 0.5 | 19.8 | 21.7 | 23.7 | 25.6 | 27.8 | 30.3 | 32.6 | 34.8 | 37.3 | 40.1
x2 = 0.6 | 22 | 23.6 | 25.6 | 27.3 | 29.3 | 31.4 | 33.2 | 35.3 | 37.6 | 39.8
x2 = 0.7 | 22.6 | 24.3 | 26.2 | 27.7 | 29.5 | 31.4 | 33.2 | 35 | 37.1 | 39.3
x2 = 0.8 | 23.1 | 24.5 | 25.9 | 27.4 | 29.1 | 30.8 | 32.5 | 34 | 35.7 | 37.4
x2 = 0.9 | 21.4 | 22.6 | 24.2 | 25.6 | 27.2 | 28.6 | 30.4 | 32.1 | 33.7 | 35.3
